From ChEMBL document CHEMBL3758090, “Investigation of α-conotoxin unbinding using umbrella sampling” (Bioorg Med Chem Lett, 2016)
Positions of bridges follow the written chain, without caps; N, C: chain ends. Residues, ends and D or L forms follow the SMILES beside them.

Target: T1, Soluble acetylcholine receptor (Aplysia californica, UniProt Q8WSF8)
T1 sequence (Q8WSF8 whole entry): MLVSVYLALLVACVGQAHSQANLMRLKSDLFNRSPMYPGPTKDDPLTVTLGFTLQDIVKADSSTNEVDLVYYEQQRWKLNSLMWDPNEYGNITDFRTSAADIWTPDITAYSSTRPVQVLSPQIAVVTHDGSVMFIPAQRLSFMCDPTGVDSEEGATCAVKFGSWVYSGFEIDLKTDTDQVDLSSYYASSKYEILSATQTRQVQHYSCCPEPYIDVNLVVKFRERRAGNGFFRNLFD
Experiment: Displacement [125I]alpha-bungarotoxin from untagged Aplysia californica AChBP expressed in Sf9 cells by competitive binding assay

Structure (SMILES): CC(C)C[C@@H]1NC(=O)[C@H](C)NC(=O)[C@@H]2CSSC[C@H](NC(=O)CN)C(=O)N[C@@H](CSSC[C@@H](C(=O)O)NC(=O)[C@H](Cc3ccc(O)cc3)NC(=O)[C@H](CCCCN)NC(=O)[C@@H]3CCCN3C(=O)[C@H](CC(N)=O)NC(=O)[C@H](CC(N)=O)NC1=O)C(=O)N[C@@H](CO)C(=O)N[C@@H](CC(C)C)C(=O)N1CCC[C@H]1C(=O)N1CCC[C@H]1C(=O)N2 (H-GCCSLPPCALNNPKYC-OH; disulfide 2-8, 3-16)
- IC50: 28 nM
